“Also recorded” adds a separate entry of the source.
Legend:
[1] = biological target: T1, BAG3-BD (Homo sapiens, UniProt O95817); experiment: SPR binding on BAG3 BAG domain; conditions: Biacore T200, 25 °C, 1:1 model; for Kd: read-out: BAG3–BD KD ± SD
T1 construct: the BAG3 domain (BAG3‐BD) was sourced from ARETA International S.r.l; (Gerenzano, Italy); purchased ARETA International S.r.l
T1 sequence (O95817 421-498 limits assumed): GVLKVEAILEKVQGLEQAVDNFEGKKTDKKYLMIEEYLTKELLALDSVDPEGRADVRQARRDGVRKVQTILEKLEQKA
Procedure: (§1) Recombinant human BAG3 protein (Bcl2‐associated athanogene 3) was obtained from Novus Biologicals (Littleton, Colorado), while the BAG3 domain (BAG3‐BD) was sourced from ARETA International S.r.l. (Gerenzano, Italy). We used (Z)‐ethyl 2‐(5‐(3,4‐dihydroxybenzylidene)‐2,4‐dioxothiazolidin‐3‐yl)acetate (LK4), a BAG3 inhibitor previously identified by our group.^[ [13] ^] SPR spectroscopy was performed using a Biacore T200 optical biosensor with CM5 sensor chips (Cytiva, Marlborough, USA) to assess the affinity of synthesized molecules for BAG3 and BAG‐BD. BAG3 and BAG‐BD were immobilized on CM5 sensor chip using standard amine‐coupling protocol.^[ [15] ^, [42] ^, [43] ^] BAG3 protein (0.067 μg μL^−1 in 10 mM CH3COONa, pH 4.5) was immobilized at a flow rate of 10 μL min^−1, achieving a surface density of 14 kRU, while BAG3‐BD (0.38 μg μL^−1 in 10 mM CH3COONa, pH 4.5) reached a density of 4 kRU. For the experiments, BAG3 and BAG‐BD surfaces, as well as an unmodified reference surface, were prepared for simultaneous analysis. Compounds 1–10 and LK4 were initially dissolved to 10 mM in 100% DMSO, then diluted 1:20 (v/v) in PBS‐P buffer (0.2 M phosphate buffer, 27 mM KCl, 1.37 M NaCl, 0.5% surfactant P20) resulting in a final DMSO concentration of 5.0%. The compounds were injected in a concentration series (1:2 dilution, 10 different concentrations) ranging from 0 to 100 μM, using 96‐well plates. SPR experiments were conducted at 25 °C with a flow rate of 20 μL min^−1, featuring a 90 s association phase followed by a 400 s dissociation phase. Changes in mass, recorded as resonance units (RU), were used to quantify binding responses, while K D values were determined using Biaevaluation software by globally fitting the double‐referenced association and dissociation data to a 1:1 interaction model. (See Figure S43–S56, Supporting Information).

[2] = biological target: T2, BAG3 full length (Homo sapiens, UniProt O95817); experiment: SPR binding on full-length BAG3; conditions: Biacore T200, 25 °C, 1:1 model; for Kd: read-out: BAG3 FULL KD ± SD
T2 construct: purchased Novus Biologicals (Littleton, Colorado)
Procedure: as §1

[3] = test system: HeLa cells; design: method as in PMID 29926854; conditions: reported value; read-out: IC50 in HeLa cell line; cited from earlier work

T2 sequence (O95817 whole entry): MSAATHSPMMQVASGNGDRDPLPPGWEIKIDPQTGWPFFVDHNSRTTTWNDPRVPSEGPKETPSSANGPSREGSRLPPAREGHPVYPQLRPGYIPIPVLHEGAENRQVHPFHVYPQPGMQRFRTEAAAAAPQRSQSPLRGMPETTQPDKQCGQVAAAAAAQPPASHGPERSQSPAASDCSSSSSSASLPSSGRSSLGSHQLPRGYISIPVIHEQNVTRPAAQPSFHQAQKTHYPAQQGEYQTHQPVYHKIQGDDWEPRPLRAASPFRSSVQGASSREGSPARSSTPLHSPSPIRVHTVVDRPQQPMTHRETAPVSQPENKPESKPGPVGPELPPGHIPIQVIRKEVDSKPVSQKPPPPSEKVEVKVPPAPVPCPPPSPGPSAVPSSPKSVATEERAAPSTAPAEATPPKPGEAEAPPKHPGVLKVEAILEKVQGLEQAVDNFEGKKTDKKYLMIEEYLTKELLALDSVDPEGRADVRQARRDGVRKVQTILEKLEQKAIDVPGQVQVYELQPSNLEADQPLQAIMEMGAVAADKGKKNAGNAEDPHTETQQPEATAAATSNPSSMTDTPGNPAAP

| Compound | BAG3–BD KD ± SD [1] | Kd [1] | Kd [2] | BAG3 FULL KD ± SD [2] | IC50 [3] |
| --- | --- | --- | --- | --- | --- |
| O=C(OCc1cn(COCc2ccccc2)nn1)c1cccc([N+](=O)[O-])c1 [Compound 1, (1‐((Benzyloxy)methyl)‐1H‐1,2,3‐triazol‐4‐yl)methyl 3‐nitrobenzoate] | low micromolar range | 1.87 ± 0.03 µM | 3.31 ± 0.18 µM | low micromolar range |  |
| O=C(OCc1cn(Cc2ccc3ccccc3n2)nn1)c1cccc([N+](=O)[O-])c1 [Compound 5, (1‐(Quinolin‐2‐ylmethyl)‐1H‐1,2,3‐triazol‐4‐yl)methyl 3‐nitrobenzoate] |  | 8.27 ± 0.98 µM | 12.5 ± 2.26 µM |  |  |
| O=C(OCc1cn(Cc2ccc3ccccc3n2)nn1)c1ccnc(Cl)c1 [Compound 6, (1‐(Quinolin‐2‐ylmethyl)‐1H‐1,2,3‐triazol‐4‐yl)methyl 2‐chloroisonicotinate] |  | 2.78 ± 0.88 µM | 24 ± 4.6 µM |  |  |
| O=C(OCc1cn(Cc2ccc3ccccc3n2)nn1)c1ccccc1I [Compound 8, (1‐(Quinolin‐2‐ylmethyl)‐1H‐1,2,3‐triazol‐4‐yl)methyl 2‐iodobenzoate] |  | 2.43 ± 0.09 µM | 12.6 ± 1.2 µM |  |  |
| Cc1cc(C)n(-c2cccc(Cn3cc(COC(=O)c4ccc(N)c(Br)c4)nn3)c2)n1 [Compound 9, (1‐(3‐(3,5‐Dimethyl‐1H‐pyrazol‐1‐yl)benzyl)‐1H‐1,2,3‐triazol‐4‐yl)methyl 4‐amino‐3‐bromobenzoate] |  |  |  | did not show the ability to bind; also recorded: No binding |  |
| Nc1ccc(C(=O)OCc2cn(Cc3cccc4ccccc34)nn2)cc1Br [Compound 10, (1‐(Naphthalen‐1‐ylmethyl)‐1H‐1,2,3‐triazol‐4‐yl)methyl 4‐amino‐3‐bromobenzoate] |  |  |  | did not show a satisfactory binding; also recorded: No binding |  |
| CCOC(=O)CN1C(=O)S/C(=C\c2ccc(O)c(O)c2)C1=O [LK4, (Z)‐ethyl 2‐(5‐(3,4‐dihydroxybenzylidene)‐2,4‐dioxothiazolidin‐3‐yl)acetate] |  |  |  |  | > 50 µM |

Further lines, with some results ahead:

| BAG3–BD KD ± SD [1] | Kd [1] | Kd [2] | Compound | BAG3 FULL KD ± SD [2] | IC50 [3] |
| --- | --- | --- | --- | --- | --- |
| not able to bind |  |  | O=C(OCc1cn(Cc2cccc3ccccc23)nn1)c1cccc([N+](=O)[O-])c1 [Compound 3, (1‐(Naphthalen‐1‐ylmethyl)‐1H‐1,2,3‐triazol‐4‐yl)methyl 3‐nitrobenzoate] | not able to bind; also recorded: No binding |  |
| not able to bind |  |  | Cc1cc(C)n(-c2cccc(Cn3cc(COC(=O)c4cccc([N+](=O)[O-])c4)nn3)c2)n1 [Compound 4, (1‐(3‐(3,5‐Dimethyl‐1H‐pyrazol‐1‐yl)benzyl)‐1H‐1,2,3‐triazol‐4‐yl)methyl 3‐nitrobenzoate] | not able to bind; also recorded: No binding |  |
|  | 6.32 ± 0.12 µM | 11.4 ± 2.43 µM | Nc1ccc(C(=O)OCc2cn(Cc3ccc4ccccc4n3)nn2)cc1Br [Compound 7, (1‐(Quinolin‐2‐ylmethyl)‐1H‐1,2,3‐triazol‐4‐yl)methyl 4‐amino‐3‐bromobenzoate] |  |  |
